Measurements published in US20060258736A1, “DOSING REGIMEN” (Bristol-Myers Squibb Company, priority 2005, published 2006).
Entries after “also recorded” stand apart in the source; their conditions may differ.

Columns and labels:
Type in all cases: in vivo, human
[1] = system: patients with advanced solid tumors; experiment: Phase I clinical trial, twice weekly oral dosing: toxicity (NCI-CTC version 2.0) and dose limiting toxicities; conditions: for Neuropathy / neurotoxicity on twice weekly regimen compared to weekly schedule: twice weekly vs weekly
Description: Patients with histologically confirmed, advanced solid tumors refractory to standard therapy, ECOG performance status 0-2, and adequate live, renal and bone marrow function without symptomatic brain metastasis or pre-existing neuropathy ≧grade 2 were eligible for the trial.
The starting dose was 60 mg/m^2 with planned dose escalation of 20 mg/m^2 for each next cohort, consisting of at least 3 patients. Cohorts were expanded to 6 patients upon occurrence of a dose limiting toxicity (DLT). No premedication was required.
Toxicity was evaluated according to NCI-CTC (version 2.0).
Dose limiting toxicities (DLTs) were defined as any of the following drug related events occurring during the first cycle (first 4 weeks): grade 4 neutropenia>5 days, febrile neutropenia, grade 4 thrombocytopenia or grade 3 requiring platelet transfusion, any grade 3-4 non-hematological toxicity, QTc interval>500 msec, any significant arrhythmia, any dose reduction or omission due to toxicity.

patients = experiment: Neuropathy on the weekly treatment schedule (comparison, n = 48)
[2] = system: advanced solid tumors refractory to standard therapy; experiment: Phase I clinical trial, twice weekly oral dosing: tumor response (modified WHO criteria)
Description: Patients with histologically confirmed, advanced solid tumors refractory to standard therapy, ECOG performance status 0-2, and adequate live, renal and bone marrow function without symptomatic brain metastasis or pre-existing neuropathy ≧grade 2 were eligible for the trial. The starting dose was 60 mg/m^2 with planned dose escalation of 20 mg/m^2 for each next cohort, consisting of at least 3 patients. Cohorts were expanded to 6 patients upon occurrence of a dose limiting toxicity (DLT). No premedication was required. Tumor response was evaluated according to the modified WHO criteria.

[3] = any cycle, 19 patients, 60-100 mg/m^2 twice weekly

In the case of `COC(=O)O[C@@]12CO[C@@H]1C[C@H](O)[C@@]1(C)C(=O)[C@H](OC(C)=O)C3=C(C)[C@@H](OC(=O)[C@H](O)[C@@H](NC(=O)OC(C)(C)C)C(C)(C)C)C[C@@](O)([C@@H](OC(=O)c4ccccc4)[C@H]21)C3(C)C` [Compound I, 3′-tert-butyl-3′-N-tert-butyloxycarbonyl-4-deacetyl-3′-dephenyl-3 ′-N-debenzoyl-4-O-methoxycarbonyl-paclitaxel], the “Dose limiting toxicities (DLTs)” value ([1]; 60 mg/m^2 twice weekly (n=3), first cycle) was “No dose limiting toxicities (DLTs) have been observed”, the “Dose limiting toxicities (DLTs), number” value ([1]; 80 mg/m^2 twice weekly (n=10), first cycle, a grade 3 fatigue and a dose-omission due to grade 2 peripheral neuropathy) was 2 and the “Toxicity shortly after the first cycle (not meeting DLT criteria)” value ([1]; 100 mg/m^2 twice weekly) was “one patient developed grade 4 neutropenia, grade 3 fatigue and grade 3 hematuria”. For the same molecule, the “Dose limiting toxicities (DLTs)” value ([1]; 100 mg/m^2 twice weekly, first three patients, first cycle) was “no DLTs were observed in the first three patients”, the “Neuropathy (any cycle) Grade 1, no. of patients” value ([1]; Twice weekly schedule (n = 19)) was 8 and the “Neuropathy (any cycle) Grade 1, percent of patients” value ([1]; Twice weekly schedule (n = 19)) was 42%. For the same molecule, the “Neuropathy (any cycle) Grade 2, no. of patients” value ([1]; Twice weekly schedule (n = 19)) was 2, the “Neuropathy (any cycle) Grade 2, percent of patients” value ([1]; Twice weekly schedule (n = 19)) was 10% and the “Neuropathy (any cycle) Total, no. of patients” value ([1]; Twice weekly schedule (n = 19)) was 10. The “Neuropathy (any cycle) Total, percent of patients” value ([1]; Twice weekly schedule (n = 19)) was 52%, the “Drug-related side effects: Abdominal pain, Gr 1-2 (no. of patients)” value [1, 3] was 2 and the “Drug-related side effects: Alopecia, Gr 1-2 (no. of patients)” value [1, 3] was 3. For the same molecule, the “Drug-related side effects: Anorexia, Gr 1-2 (no. of patients)” value [1, 3] was 6, the “Drug-related side effects: Diarrhea, Gr 1-2 (no. of patients)” value [1, 3] was 9 and the “Drug-related side effects: Epistaxis, Gr 1-2 (no. of patients)” value [1, 3] was 7. For the same molecule, the “Drug-related side effects: Fatigue, Gr 1-2 (no. of patients)” value [1, 3] was 7, the “Drug-related side effects: Fatigue, Gr 3 (no. of patients)” value [1, 3] was 2 and the “Drug-related side effects: Hematuria, Gr 3 (no. of patients)” value [1, 3] was 1. The “Drug-related side effects: Motor neuropathy, Gr 1-2 (no. of patients)” value [1, 3] was 1, the “Drug-related side effects: Myalgia, Gr 1-2 (no. of patients)” value [1, 3] was 3 and the “Drug-related side effects: Nausea, Gr 1-2 (no. of patients)” value [1, 3] was 3. For the same molecule, the “Drug-related side effects: Neutropenia, Gr 1-2 (no. of patients)” value [1, 3] was 1, the “Drug-related side effects: Neutropenia, Gr 4 (no. of patients)” value [1, 3] was 1 and the “Drug-related side effects: Sens. neuropathy, Gr 1-2 (no. of patients)” value [1, 3] was 10. The “Drug-related side effects: Stomatitis, Gr 1-2 (no. of patients)” value [1, 3] was 1, the “Drug-related side effects: Taste disturbance, Gr 1-2 (no. of patients)” value [1, 3] was 7 and the “Drug-related side effects: Thrombocytopenia, Gr 1-2 (no. of patients)” value [1, 3] was 5. For the same molecule, the “Drug-related side effects: Vomiting, Gr 1-2 (no. of patients)” value [1, 3] was 2, the Tolerability ([1]; twice weekly treatment regimen) was “well tolerated” and the “Neuropathy / neurotoxicity on twice weekly regimen compared to weekly schedule” value [1] was “reduces peripheral neuropathy; also recorded: neuropathy appears to be less frequent and less severe; also recorded: Neuropathy appears to occur less frequently and to be less severe than on a weekly treatment schedule”. For the same molecule, the “Neuropathy / neurotoxicity on twice weekly regimen compared to weekly schedule” value ([1]; listed as 3′-tert-butyl-3′-N-tert-butyloxycarbonyl-4-deacetyl-3′-dephenyl-3′-N-debenzoyl-4) was “may reduce the neurotoxicity of the drug”, the “Neuropathy (any cycle) Grade 1, no. of patients” value (patients; Weekly schedule (n = 48)) was 6 and the “Neuropathy (any cycle) Grade 1, percent of patients” value (patients; Weekly schedule (n = 48)) was 13%. The “Neuropathy (any cycle) Grade 2, no. of patients” value (patients; Weekly schedule (n = 48)) was 19, the “Neuropathy (any cycle) Grade 2, percent of patients” value (patients; Weekly schedule (n = 48)) was 40% and the “Neuropathy (any cycle) Grade 3, no. of patients” value (patients; Weekly schedule (n = 48)) was 6. The “Neuropathy (any cycle) Grade 3, percent of patients” value (patients; Weekly schedule (n = 48)) was 12%, the “Neuropathy (any cycle) Total, no. of patients” value (patients; Weekly schedule (n = 48)) was 31 and the “Neuropathy (any cycle) Total, percent of patients” value (patients; Weekly schedule (n = 48)) was 65%. The “Main and dose limiting toxicity” value (patients; weekly treatment regimen) was “peripheral neuropathy”, the Confirmed partial responses ([2]; 18 response-evaluable patients) was “three confirmed partial responses were observed in 18 response-evaluable patients” and the “Confirmed partial responses, no. of patients” value ([2]; of 3 prostate carcinoma patients) was 1. The “Confirmed partial responses, no. of patients” value ([2]; of 6 response-evaluable NSCLC patients) was 2 and the Antitumor activity ([2]; patients with NSCLC and prostate carcinoma) was “Promising activity has been observed”.
